Test results from US4835150A, “Cephem compounds” (Beecham Group p.l.c., priority 1985, dated 1989).

Assays:
Format in all cases: cell-based
[1] = system: Serratia marcescens US 32; assay: MIC by serial dilution in Iso-Sensitest Agar, S. marcescens US 32; conditions: US32, 24 h, overnight at 37° C.
Procedure: (§1) Minimum Inhibitory Concentration (MIC) values of compounds of the invention against P. mirabilis C977, S. marcescens US 32, and P. aeruginosa K79961 were determined by serial dilution in Iso-Sensitest Agar (from Oxiod Ltd., Basinstoke, England). The plates were inoculated with […] colony forming units and incubated overnight at 37° C. The MIC values recorded in Table 1 were the lowest concentration of antibiotic to inhibit growth. Comparative data for sodium 7β[2-(3,4-diacetoxyphenyl)-2-[(4-ethyl-2,3-dioxopiperazin-1yl)carbonylamino]acetomido]-7α-formamido-3-[(2-methyl-1,3,4-thiadiazol-5yl)thiomethyl]ceph-3em-4-carboxylate (Compound A), disclosed in European Patent Application No. 82303821.1 (Publication No. 0 071 395) are also given.

[2] = system: Pseudomonas aeruginosa K79961; assay: MIC by serial dilution in Iso-Sensitest Agar, P. aeruginosa K79961; conditions: 24 h, overnight at 37° C.
Procedure: as §1

[3] = system: Proteus mirabilis C977; assay: MIC by serial dilution in Iso-Sensitest Agar, P. mirabilis C977; conditions: 24 h, overnight at 37° C.
Procedure: as §1

Structure (SMILES)	MIC [1] [µg/mL]	MIC [2] [µg/mL]	MIC [3] [µg/mL]
CCN1CCN(C(=O)NC(C(=O)N[C@]2(NC=O)C(=O)N3C(C(=O)O)=C(CSc4nnc(C)s4)CS[C@@H]32)c2ccc(OC(C)=O)c(OC(C)=O)c2)C(=O)C1=O (stereo partly drawn) [Compound A, sodium 7β[2-(3,4-diacetoxyphenyl)-2-[(4-ethyl-2,3-dioxopiperazin-1yl)carbonylamino]acetomido]-7α-formamido-3-[(2-methyl-1,3,4-thiadiazol-5yl)thiomethyl]ceph-3em-4-carboxylate, reference compound]	1	2	4
CCN1CCN(C(=O)N[C@@H](C(=O)N[C@]2(NC=O)C(=O)N3C(C(=O)O)=C(CSc4nncs4)CS[C@@H]32)c2ccc(OC(C)=O)c(OC(C)=O)c2)C(=O)C1=O [Example 1, Sodium 7β-[D-2-(3,4-Diacetoxyphenyl)-2-[(4-ethyl-2,3-dioxopiperazin-1-yl)carbonylamino]acetamido]-7α-formamido-3-[(1,3,4-thiadiazol-2-yl)thiomethyl]ceph-3-em-4-carboxylate]	0.25	0.25	1
CCN1CCN(C(=O)N[C@@H](C(=O)N[C@]2(NC=O)C(=O)N3C(C(=O)O)=C(CSc4nncs4)CS[C@@H]32)c2ccc(O)c(O)c2)C(=O)C1=O [Example 2, Sodium 7β-[D-2-(3,4-Dihydroxyphenyl)-2-[(4-ethyl-2,3-dioxopiperazin-1-yl)carbonylamino]acetamido]-7α-formamido-3-[(1,3,4-thiadiazol-2-yl)thiomethyl]ceph-3-em-4-carboxylate]	0.12	0.5	1
